The source of these data is paper PMC4503954, “The mitochondrial malate dehydrogenase 1 gene GhmMDH1 is involved in plant and root growth under phosphorus deficiency conditions in cotton” (Scientific Reports, 2015).

Structures are written as SMILES.

In this experiment the target is T1, GhmMDH1 (Gossypium hirsutum, UniProt A0A1U8J4P3).
T1 construct: gene LOC107903665; N-terminus […]; (27-residue mitochondrial target signal)
Briefly: NADH/NAD+ absorbance at […] nm, nonlinear regression. It counts as biochemical. As to conditions: 50 mM MOPS pH 7.5, 25 °C.

T1 sequence (A0A1U8J4P3 entry or part of it): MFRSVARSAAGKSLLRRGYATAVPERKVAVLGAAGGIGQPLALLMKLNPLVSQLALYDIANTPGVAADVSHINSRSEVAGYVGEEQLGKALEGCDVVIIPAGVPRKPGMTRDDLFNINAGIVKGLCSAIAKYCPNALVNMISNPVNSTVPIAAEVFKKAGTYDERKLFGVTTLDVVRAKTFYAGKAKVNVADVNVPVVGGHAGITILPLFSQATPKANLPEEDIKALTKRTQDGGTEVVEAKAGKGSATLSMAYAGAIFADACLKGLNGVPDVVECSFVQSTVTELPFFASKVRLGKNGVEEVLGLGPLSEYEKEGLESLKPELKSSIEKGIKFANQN

Consider `NC(=O)C1=CN([C@@H]2O[C@H](COP(=O)(O)OP(=O)(O)OC[C@H]3O[C@@H](n4cnc5c(N)ncnc54)[C@H](O)[C@@H]3O)[C@@H](O)[C@H]2O)C=CC1` [NADH], for which the Km (0.5 mM OAA) was found to be 107 ± 19 µM.

Take `O=C(O)CC(=O)C(=O)O` [OAA]: the Km (0.2 mM NADH) stood at 132 ± 25 µM.

As to `NC(=O)c1ccc[n+]([C@@H]2O[C@H](COP(=O)(O)OP(=O)(O)OC[C@H]3O[C@@H](n4cnc5c(N)ncnc54)[C@H](O)[C@@H]3O)[C@@H](O)[C@H]2O)c1` [NAD^+], where the note is “50 mM L-malate”, the Km worked out at 766 ± 84 µM.

On to `O=C(O)C[C@H](O)C(=O)O` [Malate], for which the Km (1.0 mM NAD+) stood at 2910 ± 290 µM.
